Three compounds from PMC11219871, “Epigenetic-based differentiation therapy for Acute Myeloid Leukemia” (Nature Communications, 2024) can be followed below.

What all share (type): cell-based, human
For data set [1], the system named is primary AML patient samples. Description: Differentiation assay, CD11b flow cytometry in primary samples. The note with it: for CD11b-positive cells (%): daily 48 h. How it is done: (§1) Next, the cells were washed twice with phosphate-buffered saline (PBS) and resuspended in 1X Binding Buffer at a concentration of 1 × 10^6 cells/mL. An 8-µL aliquot of APC-CD11b (BD Pharmingen, Franklin Lakes, NJ, USA) and 1 µL of FITC annexin-V (AV) (BD Pharmingen, Franklin Lakes, NJ, USA) antibodies were added and incubated for 15 min at room temperature in the dark. Finally, after the addition of 400 µL of 1X Binding Buffer to each tube, samples were collected on a BD FACSCanto flow cytometer (Becton Dickinson, San Jose, CA, USA) and analyzed using FlowJo software.
Peripheral blood (PB) specimens were obtained from preliminarily diagnosed AML patients who had not received any treatment before specimens were collected. All patients gave informed consent for their participation in this study, which was approved by the Clinical Research Ethics Committee of Clínica Universidad de Navarra. Written informed consent was obtained from each participant. PB was mixed with an ammonium chloride-potassium (ACK) buffer lysis (0.15 mol/L NH4Cl, 10 mmol/L KHCO3, 0.1 mmol/L ethylenediaminetetraacetic acid, pH 7.2) at a 1:2 volume ratio by gentle inversion, incubated for 10 min and centrifuged at 200 g for 10 min. The cell pellet was washed twice with PBS and finally resuspended in EGM2 medium (Cambrex Bioscience, Walkersville, MD). EGM2 contains 2% fetal calf serum, hydrocortisone, heparin, antibiotics, epidermal growth factor, human fibroblast growth factor, insulin-like growth factor, vascular endothelial growth factor, and ascorbic acid. The cells were plated at 1 × 10^6 cells/mL and treated daily with 200 and 500 nM of CM-444 and CM-1758 for 48 h. Next, the differentiation assay was performed as described above.
On the technique in general: A flow cytometer gives signals particle by particle.

The subject of data set [2] is MOLM-13. Description: Differentiation-apoptosis assay, CD11b / annexin-V / Sytox Green / myeloid markers flow cytometry. More on the design: Cell viability (%): concentration or dose not given beside the values. How it is done: as §1
(§2) For the rest of experiments, the mix of antibodies (2 µL of BV786-CD13, Cat No, 744748 BD; 1 µL of diluted 1:10 antibody of PB-HLADR, Cat No 307633, Biolegend; 5 µL of APCH7-CD14, Cat No 641394, BD) was added to 10 µL of Brilliant Stain Buffer Plus (Becton Dickinson, San Jose, CA, USA). Then, 1 million cells (volume of 250 µL) were added and incubated for 30 min at room temperature in darkness. After 10 min incubation at room temperature with 2 mL of FACSLysing 1X, cells were centrifuged at 540 g for 5 min and washed twice with FACSBuffer. Finally, after centrifugation at 540 g for 5 min cells were resuspended in FACSBuffer.

The test system of data set [3] is MV4-11. The description is as above. More on the design: Cell viability (%): concentration or dose not given beside the values. How it is done: as §1, §2
Data set [4] relates to MOLM-13. Description: Cell proliferation assay: GI50. An outline of the steps:
(§3)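 Suspension cells at 1 × 10^6 cells/mL were treated in triplicate, then incubated 1–3 h with MTS reagent (CellTiter 96 AQueous One) for colorimetric viable-cell read-out. After medium-only background subtraction, absorbance was expressed as % of untreated cells, and GI50 was fitted by non-linear regression.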

The test system of a further data set is HL-60. Description: Cell proliferation assay: GI50. The note with it: read-out: GI50. In short, it runs like this:
as §3

Data set [5] relates to MV4-11. Briefly: Cell proliferation assay: GI50. In short, it runs like this: as §3
Data set [6] deals with ML-2. Briefly: Cell proliferation assay: GI50. An outline of the steps: as §3
Data set [7] concerns ML-2. Briefly: Differentiation-apoptosis assay, CD11b / annexin-V / Sytox Green / myeloid markers flow cytometry. The note with it: for CD11b / Cell viability: ML-2, 48 h, replicates (Fig 4A). More on the design: Cell viability: concentration or dose not given beside the values. How it is done:
as §1, §2

Setting [8] is: MOLM-13, 48 h treatment, replicates 1-3 (Suppl. Fig. 5A).
[9] abbreviates: MV4-11, 48 h treatment, replicates 1-3 (Suppl. Fig. 5A).

Several values for one entry are separate records, joined by “and”; a condition that tells them apart may be missing. Equal values may be shown once. Read-outs that look alike come from different tables or passages of the source.

A word on the GI50: it is the concentration giving 50% growth inhibition. Turning to `CC1=C(/C=C/C(C)=C/C=C/C(C)=C/C(=O)O)C(C)(C)CCC1` [ATRA, all-trans retinoic acid, reference compound], the “CD11b (%)” value in data set [1] (primary AML patient sample 1 (Figure 2C)) is listed as 26.1%; in data set [1] (primary AML patient sample 2 (Figure 2C)), 17.45%; in data set [1] (primary AML patient sample 3 (Figure 2C)) it was 10.26%; in data set [1] (primary AML patient sample 4 (Figure 2C)), 25.36%; in data set [1] (primary AML patient sample 5 (Figure 2C)), 15.2%; in data set [1] (primary AML patient sample 6 (Figure 2C)), 16.3%. Moreover, the “CD11b (%)” value is 29.3% in data set [1] (primary AML patient sample 7 (Figure 2C)); 13.25% in data set [1] (primary AML patient sample 8 (Figure 2C)); 26.9% and 23.1% and 27.34% with MOLM-13 [2] (MOLM-13 cell line, replicates 1-3 (Figure 2A)); 9.6% and 4.7% and 11.86% in the data set on MV4-11 [3] (MV4-11 cell line, replicates 1-3 (Figure 2A)); 5.2% and 4.2% and 6.05% in the data set on ML-2 [7] (ML-2 cell line, replicates 1-3 (Figure 2A)). Besides, the “CD11b-positive cells (%)” value in data set [1] (sample AML-1, 2 µM) is given as 26.1%; in data set [1] (sample AML-2, 2 µM), 17.5%; in data set [1] (sample AML-3, 2 µM), 10.3%; in data set [1] (sample AML-4, 2 µM) it was 25.4%; in data set [1] (sample AML-5, 2 µM), 15.2%; in data set [1] (sample AML-6, 2 µM), 16.3%. The “CD11b-positive cells (%)” value was 29.3% in data set [1] (sample AML-7, 2 µM) and 13.3% in data set [1] (sample AML-8, 2 µM). For the same compound, the concentration for 50% growth inhibition (GI50) is greater than 10000 nM in the data set on MOLM-13 [4] (Homo sapiens, MOLM-13, 48 h); greater than 10000 nM with MOLM-13 [4] (Homo sapiens, MOLM-13, MOLM-13, replicates 1-3); greater than 10000 nM with MOLM-13 [4] (MOLM-13, replicates 1-3); greater than 10000 nM with HL-60 (HL-60, replicates 1-3); greater than 10000 nM in the data set on HL-60 (Homo sapiens, HL-60, 48 h); greater than 10000 nM in the data set with HL-60 (Homo sapiens, HL-60, HL-60, replicates 1-3). For the same compound, the GI50 with MV4-11 [5] (Homo sapiens, MV4-11, 48 h) is greater than 10000 nM; in the data set with MV4-11 [5] (Homo sapiens, MV4-11, MV4-11, replicates 1-3), greater than 10000 nM; in the data set on MV4-11 [5] (MV4-11, replicates 1-3) it was greater than 10000 nM; in the data set on ML-2 [6] (Homo sapiens, ML-2, 48 h) it was greater than 10000 nM; in the data set on ML-2 [6] (Homo sapiens, ML-2, ML-2, replicates 1-3), greater than 10000 nM; in the data set on ML-2 [6] (ML-2, replicates 1-3), greater than 10000 nM.
Take `Cc1[nH]c2ccccc2c1CCNCc1ccc(/C=C/C(=O)NO)cc1` [Panobinostat, reference compound]: the “CD11b (%)” value in the data set on MOLM-13 [2] (setting [8]) was 39.6% and 32.7% and 32.0%; with MV4-11 [3] (setting [9]), 12.9% and 19.4% and 18.7%. The “Cell viability (%)” value in the data set with MOLM-13 [2] (setting [8]) is 45.5% and 59.6% and 57.8%; with MV4-11 [3] (setting [9]), 38.3% and 43.2% and 44.2%. The 50% growth inhibitory concentration (GI50) was 32 nM with MOLM-13 [4] (Homo sapiens, MOLM-13, MOLM-13); 23.2 nM in the data set with MOLM-13 [4] (Homo sapiens, MOLM-13, MOLM-13, replicates 1-3, nM for Panobistat and Quisinostat); 41.5 nM and 31.3 nM in the data set with MOLM-13 [4] (MOLM-13, replicates 1-3, nM for Panobistat and Quisinostat); 15.6 nM and 19.3 nM in the data set on HL-60 (HL-60, replicates 1-3, nM for Panobistat and Quisinostat); 19.1 nM with HL-60 (Homo sapiens, HL-60, HL-60, replicates 1-3, nM for Panobistat and Quisinostat); 18 nM with HL-60 (Homo sapiens, HL-60, HL-60). Moreover, the concentration for 50% growth inhibition (GI50) was 13 nM with MV4-11 [5] (Homo sapiens, MV4-11, MV4-11); 14.5 nM in the data set with MV4-11 [5] (Homo sapiens, MV4-11, MV4-11, replicates 1-3, nM for Panobistat and Quisinostat); 13.3 nM and 11.2 nM with MV4-11 [5] (MV4-11, replicates 1-3, nM for Panobistat and Quisinostat); 51.6 nM with ML-2 [6] (Homo sapiens, ML-2, ML-2); 46.8 nM in the data set with ML-2 [6] (Homo sapiens, ML-2, ML-2, replicates 1-3, nM for Panobistat and Quisinostat); 65.3 nM and 42.7 nM with ML-2 [6] (ML-2, replicates 1-3, nM for Panobistat and Quisinostat). In addition, in the data set on ML-2 [7], the CD11b was 36.1% and 27.0% and 28.8%. Moreover, the Cell viability in the data set on ML-2 [7] is 69.0% and 63.1% and 66.5%.
Turning to `O=C(CCCCCCC(=O)Nc1ccccc1)NO` [Vorinostat, reference compound], the “CD11b (%)” value with MOLM-13 [2] (setting [8]) is 37.1% and 43.8% and 41.2%; in the data set on MV4-11 [3] (setting [9]), 15.2% and 20.7% and 19.4%. For the same compound, the “Cell viability (%)” value is 69.1% and 74.5% and 73.9% in the data set on MOLM-13 [2] (setting [8]); 86.1% and 89% and 91% with MV4-11 [3] (setting [9]). Moreover, the GI50 is 3200 nM in the data set with MOLM-13 [4] (Homo sapiens, MOLM-13, 48 h); 3100 nM with MOLM-13 [4] (Homo sapiens, MOLM-13, MOLM-13, replicates 1-3, µM for the other inhibitors); 3000 nM and 3600 nM in the data set with MOLM-13 [4] (MOLM-13, replicates 1-3, µM for the other inhibitors); 4900 nM and 5600 nM in the data set on HL-60 (HL-60, replicates 1-3, µM for the other inhibitors); 5200 nM in the data set with HL-60 (Homo sapiens, HL-60, 48 h); 5100 nM with HL-60 (Homo sapiens, HL-60, HL-60, replicates 1-3, µM for the other inhibitors). Besides, the GI50 is 2500 nM with MV4-11 [5] (Homo sapiens, MV4-11, 48 h); 2700 nM in the data set on MV4-11 [5] (Homo sapiens, MV4-11, MV4-11, replicates 1-3, µM for the other inhibitors); 2900 nM and 2000 nM in the data set on MV4-11 [5] (MV4-11, replicates 1-3, µM for the other inhibitors); 4500 nM with ML-2 [6] (Homo sapiens, ML-2, 48 h); 4300 nM in the data set with ML-2 [6] (Homo sapiens, ML-2, ML-2, replicates 1-3, µM for the other inhibitors); 4200 nM and 5000 nM with ML-2 [6] (ML-2, replicates 1-3, µM for the other inhibitors). Also, in the data set on ML-2 [7], the CD11b was 25.0% and 20.7% and 16.1%. In addition, in the data set with ML-2 [7], the Cell viability is 86.1% and 82.9% and 82.7%.
